From PubChem BioAssay (NCI)
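Each compound was tested at five concentrations against cells in 96-well plates for 48 hours. GI50 = concentration required for 50% inhibition of growth. The concentration for full growth arrest is given as TGI.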

How the values were obtained:
Test in all cases: NCI-60 cell line screen, 48 h
[1] = system: 786-0 renal
[2] = system: A498 renal
[3] = system: A549 NSCLC
[4] = system: ACHN renal
[5] = system: CAKI-1 renal
[6] = system: COLO 205 colon
[7] = system: DU-145 prostate
[8] = system: EKVX NSCLC
[9] = system: HCC-2998 colon
[10] = system: HCT-116 colon
[11] = system: HCT-15 colon
[12] = system: HL-60(TB) leukemia
[13] = system: HOP-62 NSCLC
[14] = system: HOP-92 NSCLC
[15] = system: HS 578T breast
[16] = system: HT29 colon
[17] = system: IGROV1 ovarian
[18] = system: K-562 leukemia
[19] = system: KM12 colon
[20] = system: LOX IMVI melanoma
[21] = system: M14 melanoma
[22] = system: MALME-3M melanoma
[23] = system: MCF7 breast
[24] = system: MDA-MB-231 breast
[25] = system: MDA-MB-435
[26] = system: MOLT-4 leukemia
[27] = system: NCI-H226 lung
[28] = system: NCI-H23 lung
[29] = system: NCI-H460 lung
[30] = system: NCI-H522 lung
[31] = system: NCI/ADR-RES ovarian
[32] = system: OVCAR-3 ovarian
[33] = system: OVCAR-5 ovarian
[34] = system: OVCAR-8 ovarian
[35] = system: PC-3 prostate
[36] = system: RPMI-8226 leukemia
[37] = system: RXF 393 renal
[38] = system: SF-268 CNS
[39] = system: SF-295 CNS
[40] = system: SF-539 CNS
[41] = system: SK-MEL-28 melanoma
[42] = system: SK-MEL-5 melanoma
[43] = system: SK-OV-3 ovarian
[44] = system: SN12C renal
[45] = system: SNB-19 CNS
[46] = system: SNB-75 CNS
[47] = system: SR leukemia
[48] = system: SW-620 colon
[49] = system: T-47D breast
[50] = system: TK-10 renal
[51] = system: U251 CNS
[52] = system: UACC-257 melanoma
[53] = system: UACC-62 melanoma
[54] = system: UO-31 renal

NC1=CC(=O)C(=O)c2ccccc21
GI50 [1]: 25 µM | TGI [1]: 79.8 µM | GI50 [2]: 79.2 µM | TGI [2]: > 100 µM | GI50 [3]: 28.2 µM | TGI [3]: 97.6 µM | GI50 [4]: 16.2 µM | TGI [4]: 50.1 µM | GI50 [5]: 19.7 µM | TGI [5]: 53.3 µM | GI50 [6]: 26.6 µM | TGI [6]: > 100 µM | GI50 [7]: 17.9 µM | TGI [7]: 45.4 µM | GI50 [8]: 18.3 µM | TGI [8]: 55.8 µM | GI50 [9]: 43.9 µM | TGI [9]: > 100 µM | GI50 [10]: 12.7 µM | TGI [10]: 28 µM | GI50 [11]: 25.1 µM | TGI [11]: > 100 µM | GI50 [12]: 11.9 µM | TGI [12]: 43.8 µM | GI50 [13]: 18 µM | TGI [13]: 40.7 µM | GI50 [14]: 30 µM | TGI [14]: 93.8 µM | GI50 [15]: 12.1 µM | TGI [15]: 40.6 µM | GI50 [16]: 31.9 µM | TGI [16]: 94.3 µM | GI50 [17]: 19.7 µM | TGI [17]: 39.5 µM | GI50 [18]: 20.6 µM | TGI [18]: > 100 µM | GI50 [19]: 18.2 µM | TGI [19]: 53.4 µM | GI50 [20]: 15.9 µM | TGI [20]: 39.7 µM | GI50 [21]: 9.59 µM | TGI [21]: 21.3 µM | GI50 [22]: 11 µM | TGI [22]: 25.7 µM | GI50 [23]: 13.2 µM | TGI [23]: 29.8 µM | GI50 [24]: 11 µM | TGI [24]: 30.9 µM | GI50 [25]: 1.84 µM | TGI [25]: 3.41 µM | GI50 [26]: 22.4 µM | TGI [26]: > 100 µM | GI50 [27]: 18.8 µM | TGI [27]: 42.1 µM | GI50 [28]: 13.2 µM | TGI [28]: 34.6 µM | GI50 [29]: 33.8 µM | TGI [29]: > 100 µM | GI50 [30]: 16.6 µM | TGI [30]: 38.2 µM | GI50 [31]: 12.7 µM | TGI [31]: 53.3 µM | GI50 [32]: 12.4 µM | TGI [32]: 29.9 µM | GI50 [33]: 18.9 µM | TGI [33]: 41.1 µM | GI50 [34]: 14.8 µM | TGI [34]: 47.3 µM | GI50 [35]: 17.9 µM | TGI [35]: 70.5 µM | GI50 [36]: 11.2 µM | TGI [36]: 53.2 µM | GI50 [37]: 24.3 µM | TGI [37]: 71.5 µM | GI50 [38]: 18.8 µM | TGI [38]: 62.3 µM | GI50 [39]: 12.7 µM | TGI [39]: 33.4 µM | GI50 [40]: 21.5 µM | TGI [40]: 40.9 µM | GI50 [41]: 8.81 µM | TGI [41]: 22.3 µM | GI50 [42]: 14.7 µM | TGI [42]: 28 µM | GI50 [43]: 47.6 µM | TGI [43]: > 100 µM | GI50 [44]: 2.77 µM | TGI [44]: 17.4 µM | GI50 [45]: 20.4 µM | TGI [45]: 79.9 µM | GI50 [46]: 13.8 µM | TGI [46]: 27.1 µM | GI50 [47]: 23.3 µM | TGI [47]: > 100 µM | GI50 [48]: 17.6 µM | TGI [48]: 38.4 µM | GI50 [49]: 14.2 µM | TGI [49]: 46.2 µM | GI50 [50]: 16.7 µM | TGI [50]: 47.5 µM | GI50 [51]: 19.3 µM | TGI [51]: 46.4 µM | GI50 [52]: 5.63 µM | TGI [52]: 18.2 µM | GI50 [53]: 3.33 µM | TGI [53]: 15.7 µM | GI50 [54]: 11.5 µM | TGI [54]: 35.6 µM
